Results taken from PubChem BioAssay AID220 (DTP/NCI, 2004).
Several values for one entry are separate records, joined by “and”; a condition that tells them apart may be missing. Equal values may be shown once. Records with an inconclusive call do not appear.

Tested on: CD8F1 mice, subcutaneous mammary adenocarcinoma, T/C%
Experiment: NCI In Vivo Anticancer Drug Screen. Data for tumor model Mammary Adenocarcinoma CD8F1 (subcutaneous) in CD8F1
Conditions: higher = larger tumour
Method in brief: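 Mice carrying transplanted tumors received test compound, and survival or tumor size was recorded. Each value is the treated-group measurement divided by the corresponding measurement in vehicle-dosed controls.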

[1] = endpoint: median tumor weight (est.), dose: 100.0 mg/kg/injection, schedule: Q07DX005 (ip), vehicle: saline
[2] = endpoint: median tumor weight (est.), dose: 400.0 mg/kg/injection, schedule: Q07DX005 (ip), vehicle: saline
[3] = endpoint: median tumor weight (est.), dose: 2.0 mg/kg/injection, schedule: Q07DX005 (ip), vehicle: saline
[4] = endpoint: median tumor weight (est.), dose: 4.0 mg/kg/injection, schedule: Q07DX005 (ip), vehicle: saline
[5] = endpoint: median tumor weight (est.), dose: 12.5 mg/kg/injection, schedule: Q07DX005 (ip), vehicle: saline with Tween-80
[6] = endpoint: median tumor weight (est.), dose: 50.0 mg/kg/injection, schedule: Q07DX005 (ip), vehicle: saline with Tween-80

NC(C/[N+]([O-])=N/O)C(=O)O (configuration not stated)
T/C (endpoint: mean tumor weight, dose: 32.0 mg/kg/injection, schedule: Q07DX006 (ip), vehicle: saline): 47 % of control
T/C (endpoint: mean tumor weight, dose: 64.0 mg/kg/injection, schedule: Q07DX006 (ip), vehicle: saline): 4 % of control
T/C (endpoint: mean tumor weight, dose: 128.0 mg/kg/injection, schedule: Q07DX006 (ip), vehicle: saline): 32 % of control
T/C (endpoint: mean tumor weight, dose: 256.0 mg/kg/injection, schedule: Q07DX006 (ip), vehicle: saline): 117 % of control
T/C (endpoint: mean tumor weight, dose: 512.0 mg/kg/injection, schedule: Q07DX006 (ip), vehicle: saline): 7 % of control
T/C (endpoint: mean tumor weight, dose: 1024.0 mg/kg/injection, schedule: Q07DX006 (ip), vehicle: saline): 8 % of control
T/C (endpoint: median tumor weight (est.), dose: 25.0 mg/kg/injection, schedule: Q07DX005 (ip), vehicle: saline): 63 % of control
T/C (endpoint: median tumor weight (est.), dose: 50.0 mg/kg/injection, schedule: Q07DX005 (ip), vehicle: saline): 68 % of control
T/C (endpoint: median tumor weight (est.), dose: 64.0 mg/kg/injection, schedule: Q01DX005 (ip), vehicle: saline): 85 % of control
T/C [1]: 57 % of control
T/C (endpoint: median tumor weight (est.), dose: 128.0 mg/kg/injection, schedule: Q01DX005 (ip), vehicle: saline): 92 % of control
T/C (endpoint: median tumor weight (est.), dose: 200.0 mg/kg/injection, schedule: Q07DX005 (ip), vehicle: saline): 56 % of control
T/C (endpoint: median tumor weight (est.), dose: 256.0 mg/kg/injection, schedule: Q01DX005 (ip), vehicle: saline): 51 % of control
T/C [2]: 49 % of control
T/C (endpoint: median tumor weight (est.), dose: 512.0 mg/kg/injection, schedule: Q01DX005 (ip), vehicle: saline): 31 % of control
T/C (endpoint: median tumor weight (est.), dose: 1024.0 mg/kg/injection, schedule: Q01DX005 (ip), vehicle: saline): 63 % of control

COC(C(=O)C(O)C(C)O)C1CC2C=C3C=C(OC4CC(OC5CC(O)C(OC)C(C)O5)C(OC(C)=O)C(C)O4)C(C)C(=O)C3=C(O)C2=C(O)C1OC1CC(OC2CC(OC3CC(C)(O)C(OC(=O)C(C)C)C(C)O3)C(O)C(C)O2)C(O)C(C)O1 (configuration not stated)
T/C (endpoint: median tumor weight (est.), dose: 25.0 micrograms/kg/injection, schedule: Q07DX005 (ip), vehicle: saline): 74 % of control
T/C (endpoint: median tumor weight (est.), dose: 50.0 micrograms/kg/injection, schedule: Q07DX005 (ip), vehicle: saline): 78 % of control
T/C (endpoint: median tumor weight (est.), dose: 100.0 micrograms/kg/injection, schedule: Q07DX005 (ip), vehicle: saline): 65 % of control
T/C (endpoint: median tumor weight (est.), dose: 200.0 micrograms/kg/injection, schedule: Q07DX005 (ip), vehicle: saline): 48 % of control
T/C (endpoint: median tumor weight (est.), dose: 400.0 micrograms/kg/injection, schedule: Q07DX005 (ip), vehicle: saline): 73 % of control

CN(C)C=O
T/C [1]: 78 % of control
T/C [2]: 105 % of control
T/C (endpoint: median tumor weight (est.), dose: 800.0 mg/kg/injection, schedule: Q07DX005 (ip), vehicle: saline): 96 % of control

CN(C(=S)S(=O)(=O)C12CC3CC(CC(C3)C1)C2)c1ccccc1
T/C (endpoint: median tumor weight (est.), dose: 6.25 mg/kg/injection, schedule: Q07DX005 (ip), vehicle: Klucel (hydroxypropylcellulose) (HPC)): 66 % of control
T/C (endpoint: median tumor weight (est.), dose: 12.5 mg/kg/injection, schedule: Q07DX005 (ip), vehicle: Klucel (hydroxypropylcellulose) (HPC)): 84 % of control
T/C (endpoint: median tumor weight (est.), dose: 25.0 mg/kg/injection, schedule: Q07DX005 (ip), vehicle: Klucel (hydroxypropylcellulose) (HPC)): 81 % of control
T/C (endpoint: median tumor weight (est.), dose: 50.0 mg/kg/injection, schedule: Q07DX005 (ip), vehicle: Klucel (hydroxypropylcellulose) (HPC)): 77 % of control
T/C (endpoint: median tumor weight (est.), dose: 100.0 mg/kg/injection, schedule: Q07DX005 (ip), vehicle: Klucel (hydroxypropylcellulose) (HPC)): 61 % of control

O=C1c2ccccc2C(=O)c2c(NCCNCCO)ccc(NCCNCCO)c21
T/C (endpoint: mean tumor weight, dose: 8.3 mg/kg/injection, schedule: Q07DX004 (ip), vehicle: Klucel (hydroxypropylcellulose) (HPC)): 60 % of control
T/C (endpoint: mean tumor weight, dose: 16.6 mg/kg/injection, schedule: Q07DX004 (ip), vehicle: Klucel (hydroxypropylcellulose) (HPC)): 81 % of control
T/C (endpoint: mean tumor weight, dose: 31.25 mg/kg/injection, schedule: Q07DX004 (ip), vehicle: Klucel (hydroxypropylcellulose) (HPC)): 25 % of control
T/C (endpoint: mean tumor weight, dose: 62.5 mg/kg/injection, schedule: Q07DX004 (ip), vehicle: Klucel (hydroxypropylcellulose) (HPC)): 59 % of control
T/C (endpoint: mean tumor weight, dose: 125.0 mg/kg/injection, schedule: Q07DX004 (ip), vehicle: Klucel (hydroxypropylcellulose) (HPC)): 37 % of control
T/C [3]: 74 % of control
T/C (endpoint: median tumor weight (est.), dose: 4.0 mg/kg/injection, schedule: Q04DX005 (ip), vehicle: water): 97 % of control
T/C (endpoint: median tumor weight (est.), dose: 4.0 mg/kg/injection, schedule: Q07DX004 (ip), vehicle: water): 74 % of control
T/C [4]: 92 % of control
T/C (endpoint: median tumor weight (est.), dose: 4.0 mg/kg/injection, schedule: Q07DX005 (ip), vehicle: water): 93 % of control
T/C (endpoint: median tumor weight (est.), dose: 8.0 mg/kg/injection, schedule: Q04DX005 (ip), vehicle: water): 62 % of control
T/C (endpoint: median tumor weight (est.), dose: 8.0 mg/kg/injection, schedule: Q07DX004 (ip), vehicle: water): 69 % of control
T/C (endpoint: median tumor weight (est.), dose: 8.0 mg/kg/injection, schedule: Q07DX005 (ip), vehicle: saline): 92 % of control
T/C (endpoint: median tumor weight (est.), dose: 15.63 mg/kg/injection, schedule: Q04DX005 (ip), vehicle: Klucel (hydroxypropylcellulose) (HPC)): 30 % of control
T/C (endpoint: median tumor weight (est.), dose: 15.63 mg/kg/injection, schedule: Q07DX004 (ip), vehicle: Klucel (hydroxypropylcellulose) (HPC)): 33 % of control
T/C (endpoint: median tumor weight (est.), dose: 16.0 mg/kg/injection, schedule: Q04DX005 (ip), vehicle: water): 66 % of control
T/C (endpoint: median tumor weight (est.), dose: 16.0 mg/kg/injection, schedule: Q07DX004 (ip), vehicle: water): 72 % of control
T/C (endpoint: median tumor weight (est.), dose: 16.0 mg/kg/injection, schedule: Q07DX005 (ip), vehicle: saline): 84 % of control
T/C (endpoint: median tumor weight (est.), dose: 16.12 mg/kg/injection, schedule: Q04DX005 (ip), vehicle: Klucel (hydroxypropylcellulose) (HPC)): 9 % of control
T/C (endpoint: median tumor weight (est.), dose: 16.12 mg/kg/injection, schedule: Q07DX004 (ip), vehicle: Klucel (hydroxypropylcellulose) (HPC)): 17 % of control
T/C (endpoint: median tumor weight (est.), dose: 31.25 mg/kg/injection, schedule: Q04DX005 (ip), vehicle: Klucel (hydroxypropylcellulose) (HPC)): 11 % of control
T/C (endpoint: median tumor weight (est.), dose: 32.0 mg/kg/injection, schedule: Q01DX001 (ip), vehicle: water): 63 % of control
T/C (endpoint: median tumor weight (est.), dose: 32.0 mg/kg/injection, schedule: Q04DX005 (ip), vehicle: water): 18 % of control
T/C (endpoint: median tumor weight (est.), dose: 32.0 mg/kg/injection, schedule: Q07DX004 (ip), vehicle: water): 44 % of control
T/C (endpoint: median tumor weight (est.), dose: 32.0 mg/kg/injection, schedule: Q07DX005 (ip), vehicle: saline): 56 % of control
T/C (endpoint: median tumor weight (est.), dose: 62.5 mg/kg/injection, schedule: Q07DX005 (ip), vehicle: Klucel (hydroxypropylcellulose) (HPC)): 10 % of control
T/C (endpoint: median tumor weight (est.), dose: 64.0 mg/kg/injection, schedule: Q07DX004 (ip), vehicle: water): 7 % of control
T/C (endpoint: median tumor weight (est.), dose: 64.0 mg/kg/injection, schedule: Q07DX005 (ip), vehicle: water): 19 % of control

CN(c1ccccc1)P(=O)(N1CC1)N1CC1
T/C (endpoint: mean tumor weight, dose: 12.5 mg/kg/injection, schedule: Q07DX007 (ip), vehicle: saline): 3 % of control

O=C1C(=O)c2cccnc2-c2ncccc21
T/C (endpoint: median tumor weight change, dose: 1.56 mg/kg/injection, schedule: Q01DX001 (ip), vehicle: Klucel (hydroxypropylcellulose) (HPC)): 107 % of control
T/C (endpoint: median tumor weight change, dose: 3.12 mg/kg/injection, schedule: Q01DX001 (ip), vehicle: Klucel (hydroxypropylcellulose) (HPC)): 117 % of control

Cc1ncc([N+](=O)[O-])n1CCSC(N)=O
T/C [5]: 124 % of control and 99 % of control
T/C [6]: 123 % of control
T/C (endpoint: median tumor weight (est.), dose: 100.0 mg/kg/injection, schedule: Q07DX005 (ip), vehicle: saline with Tween-80): 96 % of control
T/C (endpoint: median tumor weight (est.), dose: 400.0 mg/kg/injection, schedule: Q07DX005 (ip), vehicle: saline with Tween-80): 66 % of control

CC1(O)CC23CC(O)C4(O)C(CC(O)C4(C)C)C(C)(O)C2CCC1C3O (configuration not stated)
T/C (endpoint: median tumor weight change, dose: 0.25 mg/kg/injection, schedule: Q01DX001 (ip), vehicle: Klucel (hydroxypropylcellulose) (HPC)): 39 % of control
T/C (endpoint: median tumor weight change, dose: 0.5 mg/kg/injection, schedule: Q01DX001 (ip), vehicle: Klucel (hydroxypropylcellulose) (HPC)): 73 % of control

OCCOCC(F)(F)F
T/C [5]: 57 % of control
T/C (endpoint: median tumor weight (est.), dose: 25.0 mg/kg/injection, schedule: Q07DX005 (ip), vehicle: saline with Tween-80): 102 % of control and 106 % of control
T/C [6]: 97 % of control and 104 % of control
T/C (endpoint: median tumor weight (est.), dose: 200.0 mg/kg/injection, schedule: Q07DX005 (ip), vehicle: saline with Tween-80): 67 % of control
T/C (endpoint: median tumor weight (est.), dose: 800.0 mg/kg/injection, schedule: Q07DX005 (ip), vehicle: saline with Tween-80): 70 % of control

COc1cccc2c1C(=O)c1c(O)c3c(c(O)c1C2=O)C[C@@](O)(/C(C)=N\NC(=O)CO)C[C@@H]3OC1CC(N)C(O)C(C)O1 (some centres not stated)
T/C (endpoint: mean tumor weight, dose: 1.0 mg/kg/injection, schedule: Q07DX006 (ip), vehicle: saline): 110 % of control
T/C (endpoint: mean tumor weight, dose: 2.0 mg/kg/injection, schedule: Q07DX006 (ip), vehicle: saline): 207 % of control
T/C (endpoint: mean tumor weight, dose: 4.0 mg/kg/injection, schedule: Q07DX006 (ip), vehicle: saline): 64 % of control
T/C (endpoint: median tumor weight (est.), dose: 1.0 mg/kg/injection, schedule: Q07DX005 (ip), vehicle: saline): 85 % of control
T/C [3]: 47 % of control
T/C [4]: 104 % of control
